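Compound exposure: 48 hours, 5 concentrations, 96-well plates. Definition used: TGI = concentration required for complete inhibition of growth.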
Experiments:
Test in all cases: inhibition of tumour cell growth, NCI panel, 48 h
[1] = test system: NCI/ADR-RES ovarian
[2] = test system: LOX IMVI melanoma
[3] = test system: EKVX NSCLC
[4] = test system: RPMI-8226 leukemia
[5] = test system: SK-MEL-2 melanoma
[6] = test system: PC-3 prostate
[7] = test system: SK-OV-3 ovarian
[8] = test system: SN12C renal
[9] = test system: NCI-H23 lung
[10] = test system: COLO 205 colon
[11] = test system: MDA-MB-435
[12] = test system: OVCAR-4 ovarian
[13] = test system: MOLT-4 leukemia
[14] = test system: ACHN renal
[15] = test system: IGROV1 ovarian
[16] = test system: MCF7 breast
[17] = test system: SK-MEL-28 melanoma
[18] = test system: UACC-62 melanoma
[19] = test system: UACC-257 melanoma
[20] = test system: DU-145 prostate
[21] = test system: SW-620 colon
[22] = test system: MDA-MB-231 breast
[23] = test system: KM12 colon
[24] = test system: HS 578T breast
[25] = test system: K-562 leukemia
[26] = test system: HOP-62 NSCLC
[27] = test system: OVCAR-5 ovarian
[28] = test system: SNB-75 CNS
[29] = test system: SNB-19 CNS
[30] = test system: NCI-H226 lung
[31] = test system: TK-10 renal
[32] = test system: HT29 colon
[33] = test system: T-47D breast
[34] = test system: MALME-3M melanoma
[35] = test system: U251 CNS
[36] = test system: NCI-H460 lung
[37] = test system: MDA-N
[38] = test system: SF-539 CNS
[39] = test system: HCC-2998 colon
[40] = test system: M14 melanoma
[41] = test system: HCT-15 colon
[42] = test system: 786-0 renal
[43] = test system: HCT-116 colon
[44] = test system: UO-31 renal
[45] = test system: OVCAR-3 ovarian
[46] = test system: SR leukemia
[47] = test system: A549 NSCLC
[48] = test system: SK-MEL-5 melanoma
[49] = test system: SF-268 CNS

Measured: TGI

CC1(C)C(=S)C(C)(C)C1=S
> 100 µM: [1] | [2] | [3] | [4] | [5] | [6] | [7] | [8] | [9] | [10] | [11] | [12] | [13] | [14] | [15] | [16] | [17] | [18] | [19] | [20] | [21] | [22] | [23] | [24] | [25] | [26] | [27] | [28] | [29] | [30] | [31] | [32] | [33] | [34] | [35] | [36] | [37] | [38] | [39] | [40] | [41] | [42] | [43] | [44] | [45] | [46] | [47] | [48] | [49]

From PubChem BioAssay (NCI)
